Source: patent US20230123334A1, “AMINO LIPID COMPOUND, PREPARATION METHOD THEREFOR, AND APPLICATION THEREOF” (SHENZHEN SHENXIN BIOTECHNOLOGY CO., LTD., priority 2020, published 2023)

System: HEK293 cells
Experiment: Preliminary screening as DNA vectors, GFP transfection of HEK293 cells
Assay type: cell-based
Conditions: amino lipid/DOPE liposome with 75 ng plasmid DNA (psin-EGFP-IRES-Puro); number of GFP-expressing cells divided by total nuclei (Hoechst)
In short: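 HEK293 cells in DMEM/10% FBS transfected with 75 ng EGFP plasmid per well complexed with amino lipid/DOPE liposomes in pH 5.6 sodium acetate. Hoechst nuclear stain added 20-24 h post-transfection, then cells cultured another 20-24 h. Confocal imaging gives GFP-positive cells as % of total nuclei.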

Compound	Absolute DNA transfection efficiency in HEK293 cells
CCCCCCCCCCCCN(CCCCCCCCCCCC)c1nc(NCCCN2CCOCC2)nc(SCCCCCCCC)n1 [S8^2N12 D8]	0.0%
CCCCCCCCCCCCN(CCCCCCCCCCCC)c1nc(NCCCN2CCN(C)CC2)nc(SCCCCCCCC)n1 [S8^2N12 D9]	0.7%
CCCCCCCCCCCCN(CCCCCCCCCCCC)c1nc(NCC2CCN(C)CC2)nc(SCCCCCCCC)n1 [S8^2N12 D10]	0.8%
CCCCCCCCCSc1nc(NCCCCCC)nc(NCCN(C)C)n1 [S9N6 D1]	16.1%
CCCCCCCCCSc1nc(NCCCCCC)nc(NCCN2CCOCC2)n1 [S9N6 D2]	2.1%
CCCCCCCCCSc1nc(NCCCCCC)nc(NCCN2CCCC2)n1 [S9N6 D3]	27.0%
CCCCCCCCCSc1nc(NCCCCCC)nc(NCCN2CCCCC2)n1 [S9N6 D4]	20.7%
CCCCCCCCCSc1nc(NCCCCCC)nc(NCCN2CCN(C)CC2)n1 [S9N6 D5]	22.4%
CCCCCCCCCSc1nc(NCCCCCC)nc(NCCCN(C)C)n1 [S9N6 D6]	8.8%
CCCCCCCCCSc1nc(NCCCCCC)nc(NCCN(CC)CC)n1 [S9N6 D7]	9.8%
CCCCCCCCCSc1nc(NCCCCCC)nc(NCCCN2CCOCC2)n1 [S9N6 D8]	7.8%
CCCCCCCCCSc1nc(NCCCCCC)nc(NCCCN2CCN(C)CC2)n1 [S9N6 D9]	11.0%
CCCCCCCCCSc1nc(NCCCCCC)nc(NCC2CCN(C)CC2)n1 [S9N6 D10]	9.7%
CCCCCCCCCSc1nc(NCCCCCCC)nc(NCCN(C)C)n1 [S9N7 D1]	36.0%
CCCCCCCCCSc1nc(NCCCCCCC)nc(NCCN2CCOCC2)n1 [S9N7 D2]	4.4%
CCCCCCCCCSc1nc(NCCCCCCC)nc(NCCN2CCCC2)n1 [S9N7 D3]	27.3%
CCCCCCCCCSc1nc(NCCCCCCC)nc(NCCN2CCCCC2)n1 [S9N7 D4]	21.9%
CCCCCCCCCSc1nc(NCCCCCCC)nc(NCCN2CCN(C)CC2)n1 [S9N7 D5]	18.3%
CCCCCCCCCSc1nc(NCCCCCCC)nc(NCCCN(C)C)n1 [S9N7 D6]	12.4%
CCCCCCCCCSc1nc(NCCCCCCC)nc(NCCN(CC)CC)n1 [S9N7 D7]	15.2%
CCCCCCCCCSc1nc(NCCCCCCC)nc(NCCCN2CCOCC2)n1 [S9N7 D8]	6.1%
CCCCCCCCCSc1nc(NCCCCCCC)nc(NCCCN2CCN(C)CC2)n1 [S9N7 D9]	12.1%
CCCCCCCCCSc1nc(NCCCCCCC)nc(NCC2CCN(C)CC2)n1 [S9N7 D10]	9.3%

Compound	Absolute DNA transfection efficiency in HEK293 cells
CCCCCCCCCSc1nc(NCCCCCCCC)nc(NCCN(C)C)n1 [S9N8 D1]	37.3%
CCCCCCCCCSc1nc(NCCCCCCCC)nc(NCCN2CCOCC2)n1 [S9N8 D2]	13.9%
CCCCCCCCCSc1nc(NCCCCCCCC)nc(NCCN2CCCC2)n1 [S9N8 D3]	37.6%
CCCCCCCCCSc1nc(NCCCCCCCC)nc(NCCN2CCCCC2)n1 [S9N8 D4]	27.3%
CCCCCCCCCSc1nc(NCCCCCCCC)nc(NCCN2CCN(C)CC2)n1 [S9N8 D5]	30.3%
CCCCCCCCCSc1nc(NCCCCCCCC)nc(NCCCN(C)C)n1 [S9N8 D6]	17.9%
CCCCCCCCCSc1nc(NCCCCCCCC)nc(NCCN(CC)CC)n1 [S9N8 D7]	15.7%
CCCCCCCCCSc1nc(NCCCCCCCC)nc(NCCCN2CCOCC2)n1 [S9N8 D8]	12.2%
CCCCCCCCCSc1nc(NCCCCCCCC)nc(NCCCN2CCN(C)CC2)n1 [S9N8 D9]	25.7%
CCCCCCCCCSc1nc(NCCCCCCCC)nc(NCC2CCN(C)CC2)n1 [S9N8 D10]	17.2%
CCCCCCCCCNc1nc(NCCN(C)C)nc(SCCCCCCCCC)n1 [S9N9 D1]	35.3%
CCCCCCCCCNc1nc(NCCN2CCOCC2)nc(SCCCCCCCCC)n1 [S9N9 D2]	24.0%
CCCCCCCCCNc1nc(NCCN2CCCC2)nc(SCCCCCCCCC)n1 [S9N9 D3]	54.9%
CCCCCCCCCNc1nc(NCCN2CCCCC2)nc(SCCCCCCCCC)n1 [S9N9 D4]	18.0%
CCCCCCCCCNc1nc(NCCN2CCN(C)CC2)nc(SCCCCCCCCC)n1 [S9N9 D5]	47.4%
CCCCCCCCCNc1nc(NCCCN(C)C)nc(SCCCCCCCCC)n1 [S9N9 D6]	60.6%
CCCCCCCCCNc1nc(NCCN(CC)CC)nc(SCCCCCCCCC)n1 [S9N9 D7]	49.8%
CCCCCCCCCNc1nc(NCCCN2CCOCC2)nc(SCCCCCCCCC)n1 [S9N9 D8]	14.8%
CCCCCCCCCNc1nc(NCCCN2CCN(C)CC2)nc(SCCCCCCCCC)n1 [S9N9 D9]	50.7%
CCCCCCCCCNc1nc(NCC2CCN(C)CC2)nc(SCCCCCCCCC)n1 [S9N9 D10]	34.5%
CCCCCCCCCCCNc1nc(NCCN(C)C)nc(SCCCCCCCCC)n1 [S9N11 D1]	35.3%
CCCCCCCCCCCNc1nc(NCCN2CCOCC2)nc(SCCCCCCCCC)n1 [S9N11 D2]	16.2%
CCCCCCCCCCCNc1nc(NCCN2CCCC2)nc(SCCCCCCCCC)n1 [S9N11 D3]	43.4%

Compound	Absolute DNA transfection efficiency in HEK293 cells
CCCCCCCCCCCNc1nc(NCCN2CCCCC2)nc(SCCCCCCCCC)n1 [S9N11 D4]	8.3%
CCCCCCCCCCCNc1nc(NCCN2CCN(C)CC2)nc(SCCCCCCCCC)n1 [S9N11 D5]	45.0%
CCCCCCCCCCCNc1nc(NCCCN(C)C)nc(SCCCCCCCCC)n1 [S9N11 D6]	55.4%
CCCCCCCCCCCNc1nc(NCCN(CC)CC)nc(SCCCCCCCCC)n1 [S9N11 D7]	15.7%
CCCCCCCCCCCNc1nc(NCCCN2CCOCC2)nc(SCCCCCCCCC)n1 [S9N11 D8]	26.8%
CCCCCCCCCCCNc1nc(NCCCN2CCN(C)CC2)nc(SCCCCCCCCC)n1 [S9N11 D9]	49.3%
CCCCCCCCCCCNc1nc(NCC2CCN(C)CC2)nc(SCCCCCCCCC)n1 [S9N11 D10]	42.5%
CCCCCCCCCCCCNc1nc(NCCN(C)C)nc(SCCCCCCCCC)n1 [S9N12 D1]	39.3%
CCCCCCCCCCCCNc1nc(NCCN2CCOCC2)nc(SCCCCCCCCC)n1 [S9N12 D2]	13.0%
CCCCCCCCCCCCNc1nc(NCCN2CCCC2)nc(SCCCCCCCCC)n1 [S9N12 D3]	47.3%
CCCCCCCCCCCCNc1nc(NCCN2CCCCC2)nc(SCCCCCCCCC)n1 [S9N12 D4]	8.0%
CCCCCCCCCCCCNc1nc(NCCN2CCN(C)CC2)nc(SCCCCCCCCC)n1 [S9N12 D5]	48.2%
CCCCCCCCCCCCNc1nc(NCCCN(C)C)nc(SCCCCCCCCC)n1 [S9N12 D6]	70.5%
CCCCCCCCCCCCNc1nc(NCCN(CC)CC)nc(SCCCCCCCCC)n1 [S9N12 D7]	12.4%
CCCCCCCCCCCCNc1nc(NCCCN2CCOCC2)nc(SCCCCCCCCC)n1 [S9N12 D8]	13.6%
CCCCCCCCCCCCNc1nc(NCCCN2CCN(C)CC2)nc(SCCCCCCCCC)n1 [S9N12 D9]	28.8%
CCCCCCCCCCCCNc1nc(NCC2CCN(C)CC2)nc(SCCCCCCCCC)n1 [S9N12 D10]	25.8%
CCCCCCCCCCCCCNc1nc(NCCN(C)C)nc(SCCCCCCCCC)n1 [S9N13 D1]	25.0%
CCCCCCCCCCCCCNc1nc(NCCN2CCOCC2)nc(SCCCCCCCCC)n1 [S9N13 D2]	11.1%
CCCCCCCCCCCCCNc1nc(NCCN2CCCC2)nc(SCCCCCCCCC)n1 [S9N13 D3]	31.6%
CCCCCCCCCCCCCNc1nc(NCCN2CCCCC2)nc(SCCCCCCCCC)n1 [S9N13 D4]	6.7%
CCCCCCCCCCCCCNc1nc(NCCN2CCN(C)CC2)nc(SCCCCCCCCC)n1 [S9N13 D5]	27.9%
CCCCCCCCCCCCCNc1nc(NCCCN(C)C)nc(SCCCCCCCCC)n1 [S9N13 D6]	31.8%
